This passage reports IC50 results from patent publication US20240368135A1 (VERTEX PHARMACEUTICALS INCORPORATED, priority 2021, published 2024).

Each structure is given as a SMILES string. Read-outs that look alike come from different tables or passages of the source.

This assay concerns the target human NaV 1.8 (Homo sapiens, UniProt Q9Y5Y9). The assay can be described thus: E-VIPR assay detecting and measuring NaV inhibition properties. The conditions noted are these: HEK cells expressing truncated human NaV 1.8. The assay is classed as cell-based. A digest of the protocol: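 HEK cells expressing truncated, fully active human NaV1.8, with KIR2.1 BacMam co-transduction, were loaded with CC2-DMPE/DiSBAC6(3) voltage-sensing dyes for 20 min at room temperature. Compounds were tested in 11-point 3-fold dilutions (300 nM top final), optionally with 25% human serum, under electrical stimulation with FRET read-out.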

[1] abbreviates: no human serum, read-out: IC50 in the E-VIPR Assay.

human NaV 1.8, sequence (Q9Y5Y9 126-399 limits assumed): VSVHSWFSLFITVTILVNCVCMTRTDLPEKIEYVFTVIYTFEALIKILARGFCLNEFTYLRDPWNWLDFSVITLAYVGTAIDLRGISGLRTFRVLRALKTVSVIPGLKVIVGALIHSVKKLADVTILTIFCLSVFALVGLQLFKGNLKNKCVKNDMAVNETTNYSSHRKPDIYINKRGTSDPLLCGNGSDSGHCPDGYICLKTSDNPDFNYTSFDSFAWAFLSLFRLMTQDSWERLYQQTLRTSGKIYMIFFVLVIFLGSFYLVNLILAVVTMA
human NaV 1.8, sequence (Q9Y5Y9 660-890 limits assumed): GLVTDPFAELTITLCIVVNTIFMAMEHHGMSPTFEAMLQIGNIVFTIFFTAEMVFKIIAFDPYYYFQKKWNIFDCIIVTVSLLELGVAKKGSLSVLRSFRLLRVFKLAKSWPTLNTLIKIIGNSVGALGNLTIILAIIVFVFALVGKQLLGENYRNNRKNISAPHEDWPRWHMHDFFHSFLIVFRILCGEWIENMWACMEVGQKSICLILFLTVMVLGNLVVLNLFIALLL
human NaV 1.8, sequence (Q9Y5Y9 1148-1722 limits assumed): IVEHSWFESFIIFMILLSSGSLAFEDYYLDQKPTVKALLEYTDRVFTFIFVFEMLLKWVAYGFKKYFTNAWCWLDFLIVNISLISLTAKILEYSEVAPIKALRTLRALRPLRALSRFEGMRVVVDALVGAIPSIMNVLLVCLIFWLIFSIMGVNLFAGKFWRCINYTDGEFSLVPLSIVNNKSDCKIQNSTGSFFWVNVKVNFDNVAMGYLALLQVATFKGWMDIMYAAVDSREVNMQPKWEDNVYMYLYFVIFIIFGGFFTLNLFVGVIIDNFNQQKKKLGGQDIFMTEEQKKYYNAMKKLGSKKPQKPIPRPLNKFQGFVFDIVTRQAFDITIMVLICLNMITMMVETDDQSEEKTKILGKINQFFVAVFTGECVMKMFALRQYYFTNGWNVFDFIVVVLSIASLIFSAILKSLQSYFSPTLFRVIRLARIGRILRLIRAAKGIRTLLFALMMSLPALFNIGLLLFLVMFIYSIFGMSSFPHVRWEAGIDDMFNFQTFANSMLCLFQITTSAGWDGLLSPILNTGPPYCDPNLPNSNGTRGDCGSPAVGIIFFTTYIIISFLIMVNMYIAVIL

A word on the IC50: it is the concentration at which inhibition is half-maximal. `COc1c([C@H]2[C@H](C(=O)Nc3ccc(C(N)=O)[n+]([O-])c3)O[C@@](C)(C(F)(F)F)[C@H]2C)ccc(F)c1F` [Compound 2, 2-carbamoyl-5-((2R,3S,4S,5R)-3-(3,4-difluoro-2-methoxyphenyl)-4,5-dimethyl-5-(trifluoromethyl)tetra hydrofuran-2-carboxamido)pyridine 1-oxide]: the IC50 under setting [1] was in the range of 0.01 to 0.1 µM.
For the molecule `COc1c([C@H]2[C@H](C(=O)Nc3ccc4cnnn4c3)O[C@@](C)(C(F)(F)F)[C@H]2C)ccc(F)c1F` [Compound 329, (2R,3S,4S,5R)-N-([1,2,3]triazolo[1,5-a]pyridin-6-yl)-3-(3,4-difluoro-2-methoxyphenyl)-4,5-dimethyl-5-(trifluoromethyl)-tetrahydrofuran-2-carboxamide], under setting [1], the IC50 is less than 0.01 µM.
As for `COc1c([C@H]2[C@H](C(=O)Nc3ccnc(N4C[C@H](C)NCC4=O)c3)O[C@@](C)(C(F)(F)F)[C@H]2C)ccc(F)c1F` [Compound 478, (2R,3S,4S,5R)-3-(3,4-difluoro-2-methoxyphenyl)-4,5-dimethyl-N-(2-((S)-5-methyl-2-oxopiperazin-1-yl)pyridin-4-yl)-5-(trifluoromethyl)tetrahydrofuran-2-carboxamide], the IC50 under setting [1] was in the range of 0.01 to 0.1 µM.
The same measure, in the same setting: as for `COc1c([C@H]2[C@H](C(=O)N[C@H]3C[C@@H]3c3cnn(C)c3)O[C@@](C)(C(F)(F)F)[C@H]2C)ccc(F)c1F` (relative stereo) [Compound 267, rel-(2R*,3S*,4S*,5R*)-3-(3,4-difluoro-2-methoxyphenyl)-4,5-dimethyl-N-((1S,2R)-2-(1-methyl-1H-pyrazol-4-yl)cyclopropyl)-5-(trifluoromethyl)tetrahydrofuran-2-carboxamide], the figure is less than 0.01 µM.
Regarding `CCOc1c([C@@H]2C[C@](C)(C(F)(F)F)O[C@H]2C(=O)Nc2ccnc(C(O)CO)c2)ccc(F)c1F` (single isomer, unassigned) [Compound 710], under setting [1], the IC50 lay in the range of 0.01 to 0.1 µM.
On the same count and under the same terms, as for `C[C@H]1[C@@H](c2ccc(F)c(F)c2OCCO)[C@H](C(=O)Nc2cnc(N3CCOCC3)nc2)O[C@@]1(C)C(F)(F)F` [Compound 542, (2R,3S,4S,5R)-3-(3,4-difluoro-2-(2-hydroxyethoxy)phenyl)-4,5-dimethyl-N-(2-morpholinopyrimidin-5-yl)-5-(trifluoromethyl)tetrahydrofuran-2-carboxamide], the figure is not below 1 µM.
On to `COc1c([C@H]2[C@H](C(=O)Nc3ccnc(C4(N)CCOC4)c3)O[C@@](C)(C(F)(F)F)[C@H]2C)ccc(F)c1F` (single isomer, unassigned) [Compound 346, rel-(2R*,3S*,4S*,5R*)-N-(2-(3-aminotetrahydrofuran-3-yl)pyridin-4-yl)-3-(3,4-difluoro-2-methoxyphenyl)-4,5-dimethyl-5-(trifluoromethyl)-tetrahydrofuran-2-carboxamide], for which, under setting [1], the IC50 is less than 0.01 µM.
Still for that read-out and setting: under `CN=S(C)(=O)c1cc(NC(=O)C2OC(C)(C(F)(F)F)C(C)C2c2ccc(F)c(F)c2OC)ccn1` (single isomer, unassigned) [Compound 530, 3-(3,4-difluoro-2-methoxy-phenyl)-N-[2-(N,S-dimethylsulfonimidoyl)-4-pyridyl]-4,5-dimethyl-5-(trifluoromethyl)tetrahydrofuran-2-carboxamide] stands less than 0.01 µM.
In the case of `COc1c([C@H]2[C@H](C(=O)Nc3ccc(C[C@@H](O)CO)nc3)O[C@@](C)(C(F)(F)F)[C@H]2C)ccc(F)c1F` [Compound 334, (2R,3S,4S,5R)-3-(3,4-difluoro-2-methoxy-phenyl)-N-[6-[(2R)-2,3-dihydroxypropyl]-3-pyridyl]-4,5-dimethyl-5-(trifluoromethyl)tetrahydrofuran-2-carboxamide], the IC50 under setting [1] lay within 0.01 to 0.1 µM.
Same read-out and setting: as for `COc1c([C@H]2[C@H](C(=O)Nc3ccc(C#N)cn3)O[C@@](C)(C(F)(F)F)[C@H]2C)ccc(F)c1F` [Compound 187, (2R,2S,4S,5R)-N-(5-cyanopyridin-2-yl)-3-(3,4-difluoro-2-methoxyphenyl)-4,5-dimethyl-5-(trifluoromethyl)tetrahydrofuran-2-carboxamide], the figure is 0.01 to 0.1 µM; as for `C[C@H]1[C@@H](c2ccc(F)c(F)c2OCCO)[C@H](C(=O)Nc2cncs2)O[C@@]1(C)C(F)(F)F` [Compound 555, (2R,3S,4S,5R)-3-(3,4-difluoro-2-(2-hydroxyethoxy)phenyl)-4,5-dimethyl-N-(thiazol-5-yl)-5-(trifluoromethyl)tetrahydrofuran-2-carboxamide], 0.01 to 0.1 µM.
As to `COc1c(C2CC(C)(C(F)(F)F)OC2C(=O)Nc2ccnc(C(O)C(C)O)c2)ccc(F)c1F` (single isomer, unassigned) [Compound 696], the IC50 (in the presence of human serum (compound numbers followed by *), read-out: IC50 in the E-VIPR Assay, performed in the presence of human serum) fell in the range of 0.01 to 0.1 µM.
As to `COc1c([C@H]2[C@H](C(=O)Nc3ccnc([C@H](O)[C@@H](C)O)c3)O[C@@](C)(C(F)(F)F)[C@H]2C)ccc(F)c1F` (single isomer, unassigned) [Compound 203, rel-(2R*,3S*,4S*,5R*)-3-(3,4-difluoro-2-methoxyphenyl)-N-(2-((1S,2R)-1,2-dihydroxypropyl)pyridin-4-yl)-4,5-dimethyl-5-(trifluoromethyl)tetrahydrofuran-2-carboxamide], the half-inhibitory concentration (IC50) under setting [1] was less than 0.01 µM.
Same read-out and setting: as for `C[C@H]1[C@@H](c2ccc(F)c(F)c2OCC2CC(F)(F)C2)[C@H](C(=O)Nc2ccnc(CO)c2)O[C@@]1(C)C(F)(F)F` [Compound 644, (2R,3S,4S,5R)-3-(2-((3,3-difluorocyclobutyl)methoxy)-3,4-difluorophenyl)-N-(2-(hydroxymethyl)pyridin-4-yl)-4,5-dimethyl-5-(trifluoromethyl)tetrahydrofuran-2-carboxamide], the figure is 0.01 to 0.1 µM; as for `COc1c([C@H]2[C@H](C(=O)Nc3ccnc(N4C[C@H](C)N(C)CC4=O)c3)O[C@@](C)(C(F)(F)F)[C@H]2C)ccc(F)c1F` [Compound 474, (2R,3S,4S,5R)-3-(3,4-difluoro-2-methoxyphenyl)-N-(2-((S)-4,5-dimethyl-2-oxopiperazin-1-yl)pyridin-4-yl)-4,5-dimethyl-5-(trifluoromethyl)tetrahydrofuran-2-carboxamide], less than 0.01 µM; as for `COc1c([C@H]2[C@H](C(=O)Nc3ccnc(N4C[C@H]5C[C@@H](C4=O)N5C)c3)O[C@@](C)(C(F)(F)F)[C@H]2C)ccc(F)c1F` (single isomer, unassigned) [Compound 509, rel-(2R*,3S*,4S*,5R*)-3-(3,4-difluoro-2-methoxyphenyl)-4,5-dimethyl-N-(2-((1S,5R)-6-methyl-2-oxo-3,6-diazabicyclo[3.1.1]heptan-3-yl)pyridin-4-yl)-5-(trifluoromethyl)tetrahydrofuran-2-carboxamide], 0.01 to 0.1 µM.
Regarding `COc1c([C@H]2[C@H](C(=O)Nc3ccnc(C4COCCN4C)c3)O[C@@](C)(C(F)(F)F)[C@H]2C)ccc(F)c1F` (single isomer, unassigned) [Compound 364, rel-(2R*,3S*,4S*,5R*)-3-(3,4-difluoro-2-methoxyphenyl)-4,5-dimethyl-N-(2-(4-methylmorpholin-3-yl)pyridin-4-yl)-5-(trifluoromethyl)tetrahydrofuran-2-carboxamide], the IC50 under setting [1] was less than 0.01 µM.
